Columns and labels:
[1] = Cytotoxicity against mouse P388D1 cells by MTT assay; type: functional, cell-based
HeLa = assay: Cytotoxicity against human HeLa cells by MTT assay; type: functional, cell-based

Row | Compound | IC50 [1] [µM] | IC50 (HeLa) [µM]
1 | CC1(C)C[C@H]2C3=CC[C@@H]4[C@@]5(C)CC[C@H](O)C(C)(C)[C@@H]5CC[C@@]4(C)[C@]3(C)C[C@@H](O)[C@@]2(CO)[C@@H](O)[C@@H]1O [BARRINGTOGENOL C] | > 50 | > 50
2 | CC1(C)CC[C@]2(C(=O)O)CC[C@]3(C)C(=CC[C@@H]4[C@@]5(C)C[C@@H](O)[C@H](O)[C@@](C)(C(=O)O)[C@@H]5CC[C@]43C)[C@@H]2[C@@H]1O [BARTOGENIC ACID] | > 50 | > 50
3 | CCC(C)C(=O)O[C@H]1[C@H](OC(C)=O)C(C)(C)C[C@H]2C3=CC[C@@H]4[C@@]5(C)CC[C@H](O)C(C)(C)[C@@H]5CC[C@@]4(C)[C@]3(C)[C@@H](O)[C@@H](O)[C@]21CO (stereo partly drawn) [ISORACEMOSOL A] | > 50 | > 50
4 | CCC(C)C(=O)OC[C@@]12[C@H](O)[C@H](O)[C@]3(C)C(=CC[C@@H]4[C@@]5(C)CC[C@H](O)C(C)(C)[C@@H]5CC[C@]43C)[C@@H]1CC(C)(C)[C@@H](O)[C@@H]2OC(C)=O (stereo partly drawn) [RACEMOSOL A] | > 50 | > 50
5 | CC[C@H](/C=C/[C@@H](C)[C@H]1CC[C@H]2[C@@H]3CC=C4C[C@@H](O)CC[C@]4(C)[C@H]3CC[C@]12C)C(C)C [STIGMASTEROL] | > 50 | > 50

From ChEMBL document CHEMBL1151899, “Oleanane-type isomeric triterpenoids from Barringtonia racemosa” (J Nat Prod, 2009)
